Literature values, collected in patent US20130210767A1, “BIOCIDAL COMPOSITION AND METHOD” (Arcis Biotechnology Limited, priority 2010, published 2013).

Structure (SMILES): CCCCCCCCCCCCCCCCCC[N+](C)(C)CCC[Si](OC)(OC)OC [compound of formula (I)]
- stability in aqueous solution (aqueous solution): limited stability
- stability in the presence of methanol (in the presence of methanol): stable
